According to US9540343B2 (Gilead Sciences, Inc., priority 2011, dated 2017):

Key:
in vitro = settings: human, uninfected MT-4 cells, CC50 (nM), same protocol as Test A, CellTiter-Glo
Summary of the method: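 Cytoprotection read-out: CellTiter-Glo chemiluminescence after 5 days at 37 °C of HIV-IIIb-infected MT-4 cells (m.o.i. 0.003) with compound in 10-point 3-fold dilutions, quadruplicate, 10% FBS. Cytotoxicity (CC50) measured identically without virus.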

HIV-IIIb = test: Test A: Antiviral assay in MT4 cells; format: cell-based, HIV-1; settings: Human immunodeficiency virus 1, IIIB, MT4, 120 h, read-out: % inhibition at 2 μM, percent inhibition of virus-induced cell killing, from dose response curve at 2 uM drug; MT-4 cells infected with HIV-IIIb, 5 days, CellTiter-Glo

SMILES	CC50 at 5 days (in vitro)	inhibition at 2 µM (HIV-IIIb)
Cc1cc(-c2cccnc2[C@H](Cc2cc(F)cc(F)c2)NC(=O)Cn2nc(C(F)(F)F)c3c2CCCC3)ccc1F [Example 65, (S)—N-(2-(3,5-difluorophenyl)-1-(3-(4-fluoro-3-methylphenyl)pyridin-2-yl)ethyl)-2-(3-(trifluoromethyl)-4,5,6,7-tetrahydro-1H-indazol-1-yl)acetamide]	11100 nM	33%
O=C(Cc1c[nH]c2ccc(F)cc12)N[C@@H](Cc1cc(F)cc(F)c1)c1ncccc1-c1cccc(C(=O)NC2CC2)c1 [Example 66, (S)—N-cyclopropyl-3-(2-(2-(3,5-difluorophenyl)-1-(2-(5-fluoro-1H-indol-3-yl)acetamido)ethyl)pyridin-3-yl)benzamide]	16800 nM	-2%
O=C(Cc1c[nH]c2ccc(F)cc12)N[C@@H](Cc1cc(F)cc(F)c1)c1ncccc1-c1cccc(OC(F)(F)F)c1 [Example 67, (S)—N-(2-(3,5-difluorophenyl)-1-(3-(3-(trifluoromethoxy)phenyl)pyridin-2-yl)ethyl)-2-(5-fluoro-1H-indol-3-yl)acetamide]	6460 nM	0%
COC(=O)Nc1ccc(-c2cccnc2[C@H](Cc2cc(F)cc(F)c2)NC(=O)Cn2nc(C(F)F)c3c2C(F)(F)C2CC32)cc1 (stereo partly drawn) [Example 68B, (S)-methyl 4-(2-(1-(3-(difluoromethyl)-5,6-dihydro-4,5-(methano)-6,6-difluoro-cyclopenta[c]pyrazol-1(4H)-ylacetamido)-2-(3,5-difluorophenyl)ethyl)pyridin-3-yl)phenylcarbamate]	> 53200 nM	28%
Cc1ccc(-c2cccnc2[C@H](Cc2cc(F)cc(F)c2)NC(=O)Cc2c[nH]c3ccc(F)cc23)cc1 [Example 69, (S)—N-(2-(3,5-difluorophenyl)-1-(3-p-tolylpyridin-2-yl)ethyl)-2-(5-fluoro-1H-indol-3-yl)acetamide]	6690 nM	84%
CC(C)NS(=O)(=O)c1ccc(-c2cccnc2[C@H](Cc2cc(F)cc(F)c2)NC(=O)Cn2nc(C(F)F)c3c2C(F)(F)C2CC32)cc1 (stereo partly drawn) [Example 70, (S)—N-(1-(3-(4-(N-isopropylsulfamoyl)phenyl)-pyridin-2-yl)-2-(3,5-difluorophenyl)ethyl)-2-(3-(difluoromethyl)-5,6-dihydro-4,5-(methano)-6,6-difluoro-cyclopenta[c]pyrazol-1(4H)-yl)acetamide]	51200 nM	56%
O=C(Cn1nc(C(F)F)c2c1C(F)(F)C1CC21)N[C@@H](Cc1cc(F)cc(F)c1)c1ncccc1-c1ccc(S(=O)(=O)N2CCCCC2)cc1 (stereo partly drawn) [Example 71, (S)—N-(1-(3-(4-((piperidin-1-yl)sulfonyl)phenyl)-pyridin-2-yl)-2-(3,5-difluorophenyl)ethyl)-2-(3-(difluoromethyl)-5,6-dihydro-4,5-(methano)-6,6-difluoro-cyclopenta[c]pyrazol-1(4H)-yl)acetamide]	> 53200 nM	64%
O=C(Cc1c[nH]c2ccc(F)cc12)N[C@@H](Cc1cc(F)cc(F)c1)c1ncccc1-c1ccsc1 [Example 72, (S)—N-(2-(3,5-difluorophenyl)-1-(3-(thiophen-3-yl)pyridin-2-yl)ethyl)-2-(5-fluoro-1H-indol-3-yl)acetamide]	16200 nM	56%
Cn1ncc2ccc(-c3cccnc3[C@H](Cc3cc(F)cc(F)c3)NC(=O)Cn3nc(C(F)F)c4c3C(F)(F)C3CC43)cc21 (stereo partly drawn) [Example 73, (S)—N-(1-(3-(1-methylindazole-6-yl)-pyridin-2-yl)-2-(3,5-difluorophenyl)ethyl)-2-(3-(difluoromethyl)-5,6-dihydro-4,5-(methano)-6,6-difluoro-cyclopenta[c]pyrazol-1(4H)-yl)acetamide]	9790 nM	15%
CC12CCC(c3c(C(F)(F)F)nn(CC(=O)N[C@@H](Cc4cc(F)cc(F)c4)c4ncccc4-c4ccc(F)c(C(N)=O)c4)c31)C2(C)C (stereo partly drawn) [Example 74D, (S)-5-(2-(2-(3,5-difluorophenyl)-1-(2-(L-4,5,6,7-Tetrahydro-3-trifluoromethyl-7,8,8-trimethyl-1H-4,7-(methano)indazol-1-yl)acetamido)ethyl)pyridin-3-yl)-2-fluorobenzamide]	8470 nM	4%
Cc1ccc2cc(-c3cccnc3[C@H](Cc3cc(F)cc(F)c3)NC(=O)Cn3nc(C(F)F)c4c3C(F)(F)C3CC43)ccc2n1 (stereo partly drawn) [Example 75, (S)—N-(1-(3-(2-methylquinoline-6-yl)-pyridin-2-yl)-2-(3,5-difluorophenyl)ethyl)-2-(3-(difluoromethyl)-5,6-dihydro-4,5-(methano)-6,6-difluoro-cyclopenta[c]pyrazol-1(4H)-yl)acetamide]	10700 nM	17%
Cc1cccc(-c2cccnc2[C@H](Cc2cc(F)cc(F)c2)NC(=O)Cn2nc(C(F)(F)F)c3c2CCCC3)c1 [Example 76, (S)—N-(2-(3,5-difluorophenyl)-1-(3-m-tolylpyridin-2-yl)ethyl)-2-(3-(trifluoromethyl)-4,5,6,7-tetrahydro-1H-indazol-1-yl)acetamide]	11500 nM	20%
O=C(Cn1nc(C(F)F)c2c1C(F)(F)C1CC21)N[C@@H](Cc1cc(F)cc(F)c1)c1ncccc1-c1cnc2cc[nH]c2c1 (stereo partly drawn) [Example 77, (S)—N-(1-(3-(1H-pyrrolo[3,2-b]pyridine-6-yl)-pyridin-2-yl)-2-(3,5-difluorophenyl)ethyl)-2-(3-(difluoromethyl)-5,6-dihydro-4,5-(methano)-6,6-difluoro-cyclopenta[c]pyrazol-1(4H)-yl)acetamide]	12400 nM	65%
O=C(Cc1c[nH]c2ccc(F)cc12)N[C@@H](Cc1cc(F)cc(F)c1)c1ncccc1-c1ccc(Cl)cc1Cl [Example 78, (S)—N-(1-(3-(2,4-dichlorophenyl)pyridin-2-yl)-2-(3,5-difluorophenyl)ethyl)-2-(5-fluoro-1H-indol-3-yl)acetamide]	7890 nM	11%
NC(=O)c1cc(-c2cccnc2[C@H](Cc2cc(F)cc(F)c2)NC(=O)Cn2nc(C(F)(F)F)c3c2CCCC3=O)ccc1F [Example 79F, (S)-5-(2-(2-(3,5-difluorophenyl)-1-(2-(4-oxo-3-(trifluoromethyl)-4,5,6,7-tetrahydro-1H-indazol-1-yl)acetamido)ethyl)pyridin-3-yl)-2-fluorobenzamide]	> 50600 nM	19%
CCOC(=O)c1nn(CC(=O)N[C@@H](Cc2cc(F)cc(F)c2)c2ncccc2-c2ccc(F)c(C(N)=O)c2)c2c1CC1CC2C1 [Example 81D, (S)-5-(2-(2-(3,5-difluorophenyl)-1-(2-(4,5,6,7-tetrahydro-3-carboethoxy-5,7-(methano)indazol-1-yl)acetamido)ethyl)pyridin-3-yl)-2-fluorobenzamide]	16700 nM	75%
O=C(Cc1c[nH]c2ccc(F)cc12)N[C@@H](Cc1cc(F)cc(F)c1)c1ncccc1-c1ccc(S(=O)(=O)N2CCOCC2)cc1 [Example 82, (S)—N-(2-(3,5-difluorophenyl)-1-(3-(4-(morpholinosulfonyl)phenyl)pyridin-2-yl)ethyl)-2-(5-fluoro-1H-indol-3-yl)acetamide]	19300 nM	114%
O=C(Cn1nc(C(F)(F)F)c2c1CCCC2)N[C@@H](Cc1cc(F)cc(F)c1)c1ncccc1-c1cccc(OC(F)(F)F)c1 [Example 84, (S)—N-(2-(3,5-difluorophenyl)-1-(3-(3-(trifluoromethoxy)phenyl)pyridin-2-yl)ethyl)-2-(3-(trifluoromethyl)-4,5,6,7-tetrahydro-1H-indazol-1-yl)acetamide]	9050 nM	18%
O=C(Cn1nc(C(F)F)c2c1C(F)(F)C1CC21)N[C@@H](Cc1cc(F)cc(F)c1)c1ncccc1-c1cnc2nccnc2c1 (stereo partly drawn) [Example 85, (S)—N-(1-(3-(pyrido[2,3-b]pyrazin-7-yl)-pyridin-2-yl)-2-(3,5-difluorophenyl)ethyl)-2-(3-(difluoromethyl)-5,6-dihydro-4,5-(methano)-6,6-difluoro-cyclopenta[c]pyrazol-1(4H)-yl)acetamide]	43000 nM	9%
NC(=O)c1cccc(-c2cccnc2[C@H](Cc2cc(F)cc(F)c2)NC(=O)Cc2c[nH]c3cc(F)ccc23)c1 [Example 86, (S)-3-(2-(2-(3,5-difluorophenyl)-1-(2-(6-fluoro-1H-indol-3-yl)acetamido)ethyl)pyridin-3-yl)benzamide]	21400 nM	97%
NC(=O)c1cc(-c2cccnc2[C@H](Cc2cc(F)cc(F)c2)NC(=O)Cn2nc(C(F)F)c3c2C2CC(C3)C2)ccc1F [Example 87, (S)-5-(2-(2-(3,5-difluorophenyl)-1-(2-(4,5,6,7-tetrahydro-3-difluoromethyl-5,7-(methano)indazol-1-yl)acetamido)ethyl)pyridin-3-yl)-2-fluorobenzamide]	21600 nM	101%
NC(=O)c1cc(-c2cccnc2[C@H](Cc2cc(F)cc(F)c2)NC(=O)Cn2cc(C(F)(F)F)nc2C2CC2)ccc1F [Example 88E, (S)-5-(2-(1-(2-(2-cyclopropyl-4-(trifluoromethyl)-1H-imidazol-1-yl)acetamido)-2-(3,5-difluorophenyl)ethyl)pyridin-3-yl)-2-fluorobenzamide]	> 53200 nM	44%
Cc1cc(-c2cccnc2[C@H](Cc2cc(F)cc(F)c2)NC(=O)Cn2nc(C(F)(F)F)c3c2CCCC3)cnc1F [Example 89, (S)—N-(2-(3,5-difluorophenyl)-1-(6′-fluoro-5′-methyl-3,3′-bipyridin-2-yl)ethyl)-2-(3-(trifluoromethyl)-4,5,6,7-tetrahydro-1H-indazol-1-yl)acetamide]	10700 nM	73%
